Measurements reported in paper PMC10390775, “CETP inhibitor evacetrapib enters mouse brain tissue” (Frontiers in Pharmacology, 2023).
“And” between values parts separate entries of the source, which are not always exact repeats. Equal values may be shown once. Read-outs that look alike come from different tables or passages of the source.

Columns and labels:
[1] = cited from earlier work
CETP in human plasma = tested on: CETP in human plasma; design: method as in Cao et al., 2011; conditions: ref Cao et al., 2011, read-out: IC50 of CETP inhibition; cited from earlier work
[2] = Pharmacokinetics of evacetrapib in plasma, liver and brain after a single tail vein injection (UHPLC-MS-qTOF); assay type: in vivo, hCETPtg mice (C57BL/6J background); conditions: for Brain peak concentration above plasma IC50: IC50 36 nM in human plasma; for k el: read-out: Kβ (elimination rate constant) (converted); for half-life: read-out: t1/2β (half-life) (converted); for Kp: accounting for residual blood, read-out: Tissue penetration ratio (AUC brain / AUC plasma); for MRT: read-out: MRT (mean residence time); for clearance: read-out: CL (drug clearance) (converted); for Vd: read-out: Vss (volume of distribution at steady state)
Protocol: The experiment was performed in conformity with the OECD Guidelines 417 ([OECD, 2010]). Male hCETPtg mice were chosen for the pharmacokinetic analysis. Mice were fed Teklad Global Diets #2018 from Envigo, Canada, for 8 weeks starting from birth, followed by a diet change of modified low-fat RD Western diet to match TD.08485 with 1% cholesterol from research diets #D16121201 for a duration of 3–4 weeks. Throughout that period, tap water was provided ad libitum. Initially, evacetrapib was solubilized in 20% of the final solution volume of Kolliphor® EL (pH range 6.0–8.0, cat# C5135) by alternating between 5 min intervals using an ultrasonic water bath at 4°C and a hot water bath at 50°C until complete dissolution. Then, 80% of the final volume was added (isotonic glucose solution 50 g/L glucose containing D-(+)-glucose Sigma cat# G7021 in MilliQ water, sterile filtered).
CETP inhibitor evacetrapib was administered through tail vein injection at doses of 40 mg/kg body weight (BW) or 120 mg/kg BW. Mice weighed 28.42 ± 3.16 g on the day of injection. They were randomly divided into two groups: 24 mice received a dose of 40 mg/kg BW of evacetrapib and the other 24 received a dose of 120 mg/kg BW. Mice from both groups were euthanized at 0, 0.5, 2, 6, 12, and 24 h after injection. Mice euthanized at later time points had continued access to food and water until the end of the experiment. Blood was collected (300–500 µL) at euthanasia for each mouse by cardiac puncture. Blood plasma was extracted using 10 µL of 1 M EDTA pH 8.0 solution in MilliQ water. Brain and liver tissues were collected immediately after euthanasia, rinsed in 0.9% NaCl solution, and snap-frozen in liquid nitrogen. Samples were stored at −80°C until analysis.
Sample preparation and digestion for evacetrapib analysis were performed using UHPLC-MS-qTOF. Working solutions from a stock of evacetrapib were prepared at concentrations of 10 μmol, 100 nmol, 1 nmol, 500 pmol, and 125 pmol per ml of methanol. Working solutions of anacetrapib used as an internal standard were prepared at concentrations of 10 μmol, 100 nmol, and 1 nmol per ml from a stock solution.
Brain and liver samples were homogenized using a polytron supplemented with a carbonate buffer at pH 9.8. The volume was adjusted such that each sample reached a final concentration of 100 mg/ml of buffer. A volume of 0.5 ml of homogenate was transferred to a Pyrex tube and enriched with 100 µL of 1 nmol/ml anacetrapib solution used as an internal standard. Then, samples were extracted twice using 4 ml of saturated ethyl acetate. For each extraction, samples were shaken for 30 min using a lateral shaker, followed by a centrifugation round (20 min, 3,000 rpm, 4°C). Organic phases were collected, combined, and then evaporated until dry under a nitrogen stream in a rotating bath at 40°C. The residues were resuspended in methanol. Samples were vortexed until no residues were left. Resuspended residues for both the brain and liver were then centrifuged (20 min, 3,000 rpm, 4°C). The supernatant was recovered, transferred into new vials, and injected into UHPLC-MS-qTOF. For the plasma measurement, 20 µL of plasma was enriched with 100 µL of 1 nmol/ml anacetrapib solution in a microtube. Evacetrapib was extracted using two steps of ethanol wash (200 µL) followed by an incubation time (30 min, 22°C) and centrifugation (5 min, 16,000 g, 10°C). Samples were dried under a gentle nitrogen stream to separate the liquid phase from the solid phase. The residues were subsequently dissolved in methanol, vortexed until no residues were left, and centrifuged (20 min, 3,000 rpm, 4°C). The supernatant was recovered, transferred into new vials, and injected into UHPLC-MS-qTOF.
Quantification was performed using a seven-point calibration curve with the internal standard correction prepared in the brain, liver, or plasma, respectively. […]

[3] = liver, 120 mg/kg BW i.v., 120 mg/kg
[4] = male, hCETPtg (C57BL/6J background), mouse, brain, iv, 40 mg/kg, brain, 40 mg/kg BW i.v.
[5] = male, hCETPtg (C57BL/6J background), mouse, brain, iv, 120 mg/kg, brain, 120 mg/kg BW i.v.
[6] = male, hCETPtg (C57BL/6J background), mouse, iv, plasma, 40 mg/kg BW i.v.
[7] = male, hCETPtg (C57BL/6J background), mouse, iv, plasma, 120 mg/kg BW i.v.
[8] = male, hCETPtg (C57BL/6J background), mouse, liver, iv, 40 mg/kg, liver, 40 mg/kg BW i.v.
[9] = male, hCETPtg (C57BL/6J background), mouse, liver, iv, 120 mg/kg, liver, 120 mg/kg BW i.v.
[10] = male, hCETPtg (C57BL/6J background), mouse, plasma, iv, 40 mg/kg, plasma, 40 mg/kg BW i.v.
[11] = male, hCETPtg (C57BL/6J background), mouse, plasma, iv, 120 mg/kg, plasma, 120 mg/kg BW i.v.

## Cc1cc(C)c2c(c1)[C@@H](N(Cc1cc(C(F)(F)F)cc(C(F)(F)F)c1)c1nnn(C)n1)CCCN2C[C@H]1CC[C@H](C(=O)O)CC1 [evacetrapib]
[1]; rat, in vivo, po
  Tolerated dose: up to 600 mg/kg BW/day
[1]; rats, oral gavage, ref Takubo et al., 2014, Simic et al., 2017
  Oral absorption fraction: 25%
CETP in human plasma
  IC50: 36 nM
[2]; 40 mg/kg BW i.v.
  Peak concentration in the brain after correction for residual blood: 1.5 µM
  Brain peak concentration above plasma IC50: approximately 40 fold
[2]; 40 mg/kg BW i.v., 0 h
  Av. conc. in brain, calculated (corrected for residual blood): 0.00 nmol/g
  Av. conc. in brain, measured (not corrected for residual blood): 2.05 nmol/g
[2]; 40 mg/kg BW i.v., 0.5 h
  Av. conc. in brain, calculated (corrected for residual blood): 1.5 nmol/g and 1.53 nmol/g
  Av. conc. in brain, measured (not corrected for residual blood): 2.21 nmol/g
[2]; 40 mg/kg BW i.v., 2 h
  Av. conc. in brain, calculated (corrected for residual blood): 1.0 nmol/g and 1.03 nmol/g
  Av. conc. in brain, measured (not corrected for residual blood): 1.41 nmol/g
[2]; 40 mg/kg BW i.v., 6 h
  Av. conc. in brain, calculated (corrected for residual blood): 0.5 nmol/g and 0.50 nmol/g
  Av. conc. in brain, measured (not corrected for residual blood): 0.57 nmol/g
[2]; 40 mg/kg BW i.v., 12 h
  Av. conc. in brain, calculated (corrected for residual blood): 0.1 nmol/g and 0.11 nmol/g
  Av. conc. in brain, measured (not corrected for residual blood): 0.12 nmol/g
[2]; 40 mg/kg BW i.v., 24 h
  Av. conc. in brain, calculated (corrected for residual blood): 0.00 nmol/g
  Av. conc. in brain, measured (not corrected for residual blood): 0.00 nmol/g
[2]; 120 mg/kg BW i.v.
  Peak concentration in the brain after correction for residual blood: 16.7 µM
  Brain peak concentration above plasma IC50: ~450 fold
[2]; 120 mg/kg BW i.v., 0 h
  Av. conc. in brain, calculated (corrected for residual blood): 0 nmol/g and 0.00 nmol/g
  Av. conc. in brain, measured (not corrected for residual blood): 22.2 nmol/g
[2]; 120 mg/kg BW i.v., 0.5 h
  Av. conc. in brain, calculated (corrected for residual blood): 16.7 nmol/g
  Av. conc. in brain, measured (not corrected for residual blood): 25.8 nmol/g
[2]; 120 mg/kg BW i.v., 2 h
  Av. conc. in brain, calculated (corrected for residual blood): 15.3 nmol/g
  Av. conc. in brain, measured (not corrected for residual blood): 17.1 nmol/g
[2]; 120 mg/kg BW i.v., 6 h
  Av. conc. in brain, calculated (corrected for residual blood): 5.0 nmol/g and 4.96 nmol/g
  Av. conc. in brain, measured (not corrected for residual blood): 5.36 nmol/g
[2]; 120 mg/kg BW i.v., 12 h
  Av. conc. in brain, calculated (corrected for residual blood): 1.0 nmol/g and 1.00 nmol/g
  Av. conc. in brain, measured (not corrected for residual blood): 1.11 nmol/g
[2]; 120 mg/kg BW i.v., 24 h
  Av. conc. in brain, calculated (corrected for residual blood): 0.02 nmol/g
  Av. conc. in brain, measured (not corrected for residual blood): 0.03 nmol/g
[2]; 120 vs 40 mg/kg BW i.v.
  Increase of tissue penetration ratio from the low to the high dose: 1.63 fold
[2]; brain, 40 mg/kg BW i.v.
  AUMC: 39.2 nmol x h^2/mL
[2]; brain, 40 mg/kg BW i.v., 24 h
  AUC: 10.6 nmol x h/mL
[2]; brain, 120 mg/kg BW i.v.
  AUMC: 395 nmol x h^2/mL
[2]; brain, 120 mg/kg BW i.v., 24 h
  AUC: 115 nmol x h/mL
[2]; first sampling time point, 40 and 120 mg/kg BW i.v.
  Time of peak plasma values: 0 h
[2]; hCETPtg mice, i.v. injection
  Entry into brain tissue: does enter the mouse brain tissue
[2]; liver, 40 mg/kg BW i.v.
  AUMC: 1183 nmol x h^2/mL
[2]; liver, 40 mg/kg BW i.v., 24 h
  AUC: 267 nmol x h/mL
[2]; liver, 40 mg/kg BW i.v., 40 mg/kg
  t1/2β (half-life): 3.0 h
[2]; liver, 120 mg/kg BW i.v.
  AUMC: 3167 nmol x h^2/mL
[2]; liver, 120 mg/kg BW i.v., 24 h
  AUC: 881 nmol x h/mL
[2]; [3]
  Kβ (elimination rate constant): 0.2 h⁻¹
  t1/2β (half-life): 3.2 h
[2]; [4]
  k el: 5.56e-05 s⁻¹
  half-life: 2.8 h
[2]; [5]
  k el: 8.33e-05 s⁻¹
  half-life: 2.5 h
[2]; male, hCETPtg (C57BL/6J background), mouse, brain, iv, 40 mg/kg BW i.v.
  Kp: 0.08
[2]; male, hCETPtg (C57BL/6J background), mouse, brain, iv, 120 mg/kg BW i.v.
  Kp: 0.13
[2]; male, hCETPtg (C57BL/6J background), mouse, brain, iv, both doses, 40 and 120 mg/kg BW i.v., read-out: Time of peak concentration in the brain
  Tmax: 0.5 h
[2]; male, hCETPtg (C57BL/6J background), mouse, iv, brain, 40 mg/kg BW i.v.
  MRT: 3.7 h
[2]; male, hCETPtg (C57BL/6J background), mouse, iv, brain, 120 mg/kg BW i.v.
  MRT: 3.4 h
[2]; male, hCETPtg (C57BL/6J background), mouse, iv, liver, 40 mg/kg BW i.v.
  MRT: 4.4 h
[2]; male, hCETPtg (C57BL/6J background), mouse, iv, liver, 120 mg/kg BW i.v.
  MRT: 3.6 h
[2]; [6]
  clearance: 0.157 mL/min
  MRT: 2 h
  Vd: 0.0185 L
[2]; [7]
  clearance: 0.055 mL/min
  MRT: 1.6 h
  Vd: 0.0053 L
[2]; [8]
  k el: 5.56e-05 s⁻¹
  half-life: 2.8 h
[2]; [9]
  k el: 8.33e-05 s⁻¹
  half-life: 2.5 h
[2]; [10]
  k el: 0.000111 s⁻¹
  half-life: 2.3 h
[2]; [11]
  k el: 5.56e-05 s⁻¹
  half-life: 3 h
[2]; plasma, 40 mg/kg BW i.v.
  AUMC: 398 nmol x h^2/mL
  Kα: 6.5 h⁻¹
  t1/2α: 0.1 h
[2]; plasma, 40 mg/kg BW i.v., 24 h
  AUC: 203 nmol x h/mL
[2]; plasma, 120 mg/kg BW i.v.
  AUMC: 2297 nmol x h^2/mL
  Kα: 1.8 h⁻¹
  t1/2α: 0.4 h
[2]; plasma, 120 mg/kg BW i.v., 24 h
  AUC: 1418 nmol x h/mL
